From US20060263448A1, “Use of extracts from roots of pelargonium sidoides and pelargonium reniforme” (priority 2004, published 2006)

Tested on: Mycobacterium ranae
Assay: Assay on anti-mycobacterial activity (suspension dilution method)
Format: cell-based
Settings: M. ranae, 48 h at 37° C., visual evaluation of growth inhibition
Procedure: To assay the anti-mycobacterial efficacy, Mycobacterium ranae that represents a non-human pathogenic mycobacterium having a similar sensitivity against chemotherapeutic agents like M. tuberculosis was used. The suspension dilution method was used to determine the minimal inhibitory concentration (MHC). The extract of Pelargonium sidoides was solved in DMSO and serially diluted to obtain the required concentrations. Pelargonium extract or the solvent was added in a volume of 10 μl to 48-well microtiter plates containing 990 μl of an M. ranae suspension (ATCC 10) in a concentration of 1-5×10^5 CFU/ml Brain-Heart Infusion Broth (Difco, USA) per well. The maximum concentration of the solvent (DMSO) was 1%. Pelargonium extract was tested at concentrations between 100 and 0.03 μg/ml. All tests were carried out twice. The plates were incubated for 48 h at 37° C. and then the inhibition of the growth of the bacteria was evaluated visually.

Substance: Gentamicin
- minimal inhibitory concentration (MHC): 0.3 µg/mL
